Among the data in patent US9845310B2 (priority 2015, dated 2017) are EC50 values, retold here.

The target in one assay is APJ (Homo sapiens (Human), UniProt P35414). The assay is described as follows: [35S]GTPγS binding assay on membranes from CHO cells stably expressing human APJ receptor. It is filed as biochemical. Particulars: Activity hAPJ SPA EC50 IP (μM). Background: GTPγS is a poorly hydrolysed GTP analogue; its binding reports G protein activation.
APJ, sequence (P35414 whole entry): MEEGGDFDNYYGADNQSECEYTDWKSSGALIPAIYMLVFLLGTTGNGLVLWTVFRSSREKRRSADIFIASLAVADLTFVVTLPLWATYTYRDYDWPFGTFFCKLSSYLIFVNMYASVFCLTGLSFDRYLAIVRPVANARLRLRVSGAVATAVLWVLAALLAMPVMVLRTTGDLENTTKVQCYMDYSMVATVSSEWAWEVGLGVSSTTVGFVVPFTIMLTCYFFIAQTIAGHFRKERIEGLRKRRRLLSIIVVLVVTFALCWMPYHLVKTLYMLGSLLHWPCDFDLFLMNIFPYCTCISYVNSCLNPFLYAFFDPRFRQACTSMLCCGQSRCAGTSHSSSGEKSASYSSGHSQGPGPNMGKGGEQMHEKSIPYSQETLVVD
Method: A GTPγS binding assay was performed on membranes prepared from CHO cells stably expressing human APJ receptor. The optimum experimental conditions for the concentrations of GDP, MgCl2, and NaCl in the assay buffer were initially determined. The assay was performed in assay buffer [20 mM HEPES, pH 7.5, 5 mM MgCl2, and 0.1% (w/v) BSA with 200 mM NaCl, 3 M GDP] and membranes expressing human APJ receptor/well along with WGA PS beads. The reaction was initiated by addition of 0.2 nM [^35S]GTPγS (Perkin Elmer Life and Analytical Sciences, Waltham USA) in the absence or presence of various ligands and incubated at RT for 90 min. Nonspecific binding was determined in the presence of 100 M GTPγS and was always less than 0.2% of total binding.
`COc1cccc(-c2nnc(NS(=O)(=O)[C@H](C)[C@H](OC(C)C)c3ncc(C)cn3)n2-c2c(OC)cccc2OC)n1` (single isomer, unassigned) [Example 98.0]: the concentration for a half-maximal effect (EC50) came out at 0.0099 µM.
Still for that read-out and setting: to `CC#Cc1cnc([C@@H](OC)[C@H](C)S(=O)(=O)Nc2nnc(-c3cncc(C)c3)n2-c2c(OC)cccc2OC)nc1` [Example 535.0, (1R,2S)-N-(4-(2,6-dimethoxyphenyl)-5-(5-methylpyridin-3-yl)-4H-1,2,4-triazol-3-yl)-1-methoxy-1-(5-(prop-1-yn-1-yl)pyrimidin-2-yl)propane-2-sulfonamide] belongs 0.0013 µM.
The same measure, in the same setting: to `COc1cccc(-c2nnc(NS(=O)(=O)[C@@H](C)[C@H](C)c3ncc(F)cn3)n2-c2cn(C)c3ccccc23)n1` (racemic) [Example 451.0, (2S,3R)-3-(5-fluoro-2-pyrimidinyl)-N-(5-(6-methoxy-2-pyridinyl)-4-(1-methyl-1H-indol-3-yl)-4H-1,2,4-triazol-3-yl)-2-butanesulfonamide and (2R,3S)-3-(5-fluoro-2-pyrimidinyl)-N-(5-(6-methoxy-2-pyridinyl)-4-(1-methyl-1H-indol-3-yl)-4H-1,2,4-triazol-3-yl)-2-butanesulfonamide] belongs 0.045 µM.
Same read-out and setting: with `COc1cccc(-c2nnc(NS(=O)(=O)C[C@H](O)c3ccc(C#N)cc3S(C)(=O)=O)n2-c2c(OC)cccc2OC)n1` (mixture of isomers) [Example 481.0, (2S)-2-(4-cyano-2-(methylsulfonyl)phenyl)-N-(4-(2,6-dimethoxyphenyl)-5-(6-methoxy-2-pyridinyl)-4H-1,2,4-triazol-3-yl)-2-hydroxyethanesulfonamide and (2R)-2-(4-cyano-2-(methylsulfonyl)phenyl)-N-(4-(2,6-dimethoxyphenyl)-5-(6-methoxy-2-pyridinyl)-4H-1,2,4-triazol-3-yl)-2-hydroxyethanesulfonamide] the figure was 0.00024 µM; with `COc1cccc(-c2nnc(NS(=O)(=O)C[C@H](OC)c3ccc(C#N)cc3S(C)(=O)=O)n2-c2c(OC)cccc2OC)n1` (mixture of isomers) [Example 484.0, (2R)-2-(4-cyano-2-(methylsulfonyl)phenyl)-N-(4-(2,6-dimethoxyphenyl)-5-(6-methoxy-2-pyridinyl)-4H-1,2,4-triazol-3-yl)-2-methoxyethanesulfonamide and (2S)-2-(4-cyano-2-(methylsulfonyl)phenyl)-N-(4-(2,6-dimethoxyphenyl)-5-(6-methoxy-2-pyridinyl)-4H-1,2,4-triazol-3-yl)-2-methoxyethanesulfonamide], 0.00026 µM.
As for `COCCO[C@H](c1ncc(C)cn1)[C@H](C)S(=O)(=O)Nc1nnc(-c2cccc(OC)n2)n1-c1c(OC)cccc1OC` [Example 695.0, (1R,2S)-N-(4-(2,6-dimethoxyphenyl)-5-(6-methoxypyridin-2-yl)-4H-1,2,4-triazol-3-yl)-1-(2-methoxyethoxy)-1-(5-methylpyrimidin-2-yl)propane-2-sulfonamide], the EC50 amounted to 0.00012 µM.
The same measure, in the same setting: with `CO[C@H](c1ncc(C)cn1)[C@H](C)S(=O)(=O)Nc1nnc(-c2cncc(C)c2)n1-c1c(C)cccc1C` [Example 673.0, (1R,2S)-N-(4-(2,6-dimethylphenyl)-5-(5-methyl-3-pyridinyl)-4H-1,2,4-triazol-3-yl)-1-methoxy-1-(5-methyl-2-pyrimidinyl)-2-propanesulfonamide 2,2,2-trifluoroacetate] the figure was 0.022 µM; with `COc1cccc(-c2nnc(NS(=O)(=O)[C@H](C)[C@@H](O)C3CC3)n2-c2c(OC)cccc2OC)n1` (mixture of isomers) [Example 438.0], 0.052 µM; with `COc1cccc(OC)c1-n1c(NS(=O)(=O)C[C@H](O)c2ccc(Cl)cc2S(C)(=O)=O)nnc1-c1cncc(C)c1` (mixture of isomers) [Example 457.0, (2R)-2-(4-chloro-2-(methylsulfonyl)phenyl)-N-(4-(2,6-dimethoxyphenyl)-5-(5-methyl-3-pyridinyl)-4H-1,2,4-triazol-3-yl)-2-hydroxyethanesulfonamide and (2S)-2-(4-chloro-2-(methylsulfonyl)phenyl)-N-(4-(2,6-dimethoxyphenyl)-5-(5-methyl-3-pyridinyl)-4H-1,2,4-triazol-3-yl)-2-hydroxyethanesulfonamide], 0.0003 µM.
For `COc1ccc(Cl)c(OC)c1-n1c(-c2cncc(C)c2)nnc1S(=O)(=O)NCCc1ccc(Cl)cc1` [Example 373.0, 4-(3-chloro-2,6-dimethoxyphenyl)-N-(2-(4-chlorophenyl)ethyl)-5-(5-methyl-3-pyridinyl)-4H-1,2,4-triazole-3-sulfonamide], the EC50 was 0.31 µM.
`COc1cccc(-c2nnc(NS(=O)(=O)CCc3ccc(C#N)cn3)n2-c2c(OC)cccc2OC)n1` [Example 550.0, 2-(5-cyanopyridin-2-yl)-N-(4-(2,6-dimethoxyphenyl)-5-(6-methoxypyridin-2-yl)-4H-1,2,4-triazol-3-yl)ethanesulfonamide]: the EC50 is 0.0008 µM.
Still for that read-out and setting: with `COc1cccc(-c2nnc(NS(=O)(=O)C[C@H](O)c3ccc(C#N)cn3)n2-c2c(OC)cccc2OC)n1` (mixture of isomers) [Example 331.0, (R)-2-(5-cyanopyridin-2-yl)-N-(4-(2,6-dimethoxyphenyl)-5-(6-methoxypyridin-2-yl)-4H-1,2,4-triazol-3-yl)-2-hydroxyethanesulfonamide and (S)-2-(5-cyanopyridin-2-yl)-N-(4-(2,6-dimethoxyphenyl)-5-(6-methoxypyridin-2-yl)-4H-1,2,4-triazol-3-yl)-2-hydroxyethanesulfonamide] the figure was 0.00024 µM.

The assay is the same for the next values; noted with them: read-out: Activity hAPJ SPA EC50 IP.
For the compound `COc1cccc(OC)c1-n1c(NS(=O)(=O)[C@@H](C)[C@H](OC)c2ncc(C)o2)nnc1-c1cncc(C)c1` (single isomer, unassigned) [Example 633.0, (1S,2R)-N-(4-(2,6-dimethoxyphenyl)-5-(5-methylpyridin-3-yl)-4H-1,2,4-triazol-3-yl)-1-methoxy-1-(5-methyloxazol-2-yl)propane-2-sulfonamide or (1R,2S)-N-(4-(2,6-dimethoxyphenyl)-5-(5-methylpyridin-3-yl)-4H-1,2,4-triazol-3-yl)-1-methoxy-1-(5-methyloxazol-2-yl)propane-2-sulfonamide], the EC50 was found to be 0.0069 µM.
Take `COc1cccc(-c2nnc(NS(=O)(=O)[C@@H](C)[C@H](OC)c3ccc(C#N)cc3C#N)n2-c2c(OC)cccc2OC)n1` (mixture of isomers) [Example 473.0]: the EC50 came out at 0.00023 µM.
For the compound `COc1cccc(OC)c1-n1c(NS(=O)(=O)[C@@H]2CCCO[C@@H]2c2ncc(C)cn2)nnc1-c1cncc(C)c1` (single isomer, unassigned) [Example 644.0], the EC50 amounted to 0.18 µM.
The same measure, in the same setting: with `COc1cccc(OC)c1-n1c(NS(=O)(=O)[C@@H](C)[C@H](C)c2ncc(F)c([C@@H]3COCCO3)n2)nnc1-c1cccc(OCC(O)(C(F)(F)F)C(F)(F)F)n1` (single isomer, unassigned) [Example 640.0] the figure was 0.33 µM; with `COc1cccc(OC)c1-n1c(NS(=O)(=O)[C@@H](C)[C@H](C)c2ncc(F)c([C@@H]3COCCO3)n2)nnc1-c1cccc(OCC(O)(C(F)(F)F)C(F)(F)F)n1` (single isomer, unassigned) [Example 639.0], 0.16 µM.
As to `COc1cccc(OC)c1-n1c(NS(=O)(=O)[C@@H](C)[C@H](O)c2ccc(C#N)cc2)nnc1-c1cncc(C)c1` (mixture of isomers) [Example 247.0, (1R,2S)-1-(4-cyanophenyl)-N-(4-(2,6-dimethoxyphenyl)-5-(5-methyl-3-pyridinyl)-4H-1,2,4-triazol-3-yl)-1-hydroxy-2-propanesulfonamide and (1S,2R)-1-(4-cyanophenyl)-N-(4-(2,6-dimethoxyphenyl)-5-(5-methyl-3-pyridinyl)-4H-1,2,4-triazol-3-yl)-1-hydroxy-2-propanesulfonamide], the EC50 was found to be 0.0038 µM.
Still for that read-out and setting: to `COc1cccc(OC)c1-n1c(NS(=O)(=O)[C@@H](C)[C@H](O)c2ccc(C#N)cc2)nnc1-c1cncc(C)c1` (single isomer, unassigned) [Example 249.0, (1R,2S)-1-(4-cyanophenyl)-N-(4-(2,6-dimethoxyphenyl)-5-(5-methyl-3-pyridinyl)-4H-1,2,4-triazol-3-yl)-1-hydroxy-2-propanesulfonamide or (1S,2R)-1-(4-cyanophenyl)-N-(4-(2,6-dimethoxyphenyl)-5-(5-methyl-3-pyridinyl)-4H-1,2,4-triazol-3-yl)-1-hydroxy-2-propanesulfonamide] belongs 0.0011 µM; to `COc1cccc(OC)c1-n1c(NS(=O)(=O)[C@@H](C)Cc2ncc(F)cn2)nnc1-c1cncc(C)c1` (mixture of isomers) [Example 207.0, (S)-N-(4-(2,6-dimethoxyphenyl)-5-(5-methylpyridin-3-yl)-4H-1,2,4-triazol-3-yl)-1-(5-fluoropyrimidin-2-yl)propane-2-sulfonamide and (R)-N-(4-(2,6-dimethoxyphenyl)-5-(5-methylpyridin-3-yl)-4H-1,2,4-triazol-3-yl)-1-(5-fluoropyrimidin-2-yl)propane-2-sulfonamide], 0.0033 µM.
On the same count and under the same terms, with `COc1cccc(OC)c1-n1c(NS(=O)(=O)[C@H](C)[C@@H](OC(C)C)c2ncc(C)cn2)nnc1-c1cccnc1` (stereo in doubt) [Example 624.0, (1S,2R)-N-(4-(2,6-dimethoxyphenyl)-5-(3-pyridinyl)-4H-1,2,4-triazol-3-yl)-1-(1-methylethoxy)-1-(5-methyl-2-pyrimidinyl)-2-propanesulfonamide, (1R,2S)-N-(4-(2,6-dimethoxyphenyl)-5-(3-pyridinyl)-4H-1,2,4-triazol-3-yl)-1-(1-methylethoxy)-1-(5-methyl-2-pyrimidinyl)-2-propanesulfonamide] the figure was 0.16 µM.
On the same count and under the same terms, to `COc1cccc(OC)c1-n1c(NS(=O)(=O)[C@H](C)[C@@H](OC(C)C)c2ncc(C)cn2)nnc1-c1cccnc1` (stereo in doubt) [Example 626.0, (1S,2R)-N-(4-(2,6-dimethoxyphenyl)-5-(3-pyridinyl)-4H-1,2,4-triazol-3-yl)-1-(1-methylethoxy)-1-(5-methyl-2-pyrimidinyl)-2-propanesulfonamide, (1R,2S)-N-(4-(2,6-dimethoxyphenyl)-5-(3-pyridinyl)-4H-1,2,4-triazol-3-yl)-1-(1-methylethoxy)-1-(5-methyl-2-pyrimidinyl)-2-propanesulfonamide] belongs 0.0018 µM.

Usually EC50 stands for the midpoint of the concentration-response curve.
